pIC50: −log10 of the molar value.
Tests used:
larval zebrafish = assay: Light–dark transition assay in larval zebrafish; format: in vivo, zebrafish (Danio rerio); conditions: 5 dpf larvae, 20 h incubation at maximum‐tolerated concentration (FG‐1 500 μM, FG‐18 25 μM)
Method: All experiments were conducted on zebrafish (Danio rerio) larvae up to 5 days post fertilization (dpf), therefore, in accordance with current European legislation, ethical permission to conduct assays was not required. However, housing and experimental procedures were performed in compliance with the National Institute of Health Guidelines for the Care and Use of Laboratory Animals and the European Union Directive of 22 September 2010 (2010/63/EU) on protecting animals used for scientific purposes. All efforts were taken to minimize larvae stress and suffering. Larvae were euthanized with an overdose of tricaine ([…]). […] Before the respective behavioral tests were conducted, larvae at 4 dpf were incubated for 20 h in different arylpiperazine derivatives solutions of maximum‐tolerated concentrations (MCTs), determined during toxicological screening.^[ [30], [32] ^] […] Basic locomotor activity was measured using an automated tracking device, Daniovision by Noldus, and the total distance traveled was quantified using EthoVision XT software of the same company (Wageningen, the Netherlands) over a 30 min long observation period. […] The PTZ‐induced hyperlocomotion (acute seizure assay) was assessed in 5 dpf larval zebrafish (after 20 h incubation with tested derivatives at MCTs). […] Similarly, the data were recorded as the distance traveled (mm) by larvae when exposed to alternating lightning. […]

5‐HT2A receptor = 5‐HT2A receptor (Rattus norvegicus, UniProt P14842); assay: Inhibition of 5‐HT‐evoked contractions in isolated rat ileum; design: segments (1–1.5 cm) of ileum were removed, flushed of luminal contents, and placed in Krebs solution; from tissue; host or cells: isolated rat (Sprague-Dawley) ileum segments; conditions: 5‐HT 10^−5 M, compounds 10^−8–10^−5 M; for Emax: read-out: EMAX, maximal inhibitory effect on 5‐HT‐induced contractions in the rat ileum; for pIC50: IC50, inhibition of 5‐HT‐induced contractions in the rat ileum, contact time 10 min
Method: Male rats (Sprague‐Dawley, 160–200 g; Charles River Laboratories; Calco, Italy) were manipulated and cared for in strict compliance with the principles of laboratory animal care. Experimental procedures were conducted in conformity with Italian (D.L. 26/2014) and European (directive 2010/63/EU) regulations on the protection of animals used for scientific purposes and approved by the Italian Ministry. Animal housing complied with recent pharmacological guidance.^[ [40] ^] All animals weighing 160–200 g were used after a 1‐week acclimation period (temperature 23 ± 2 °C; humidity 60%, free access to water and standard food).
The segments were prepared as previously described:^[ [41] ^] the segments were set up in such a way as to record contractions mainly from the longitudinal axis, in an organ bath containing 20 mL of Krebs solution, bubbled with 95% O2 and 5% CO2 and maintained at 37 °C. The tissues were connected to an isotonic transducer (load: 0.5 g), connected to Power Lab system (Ugo Basile, Comerio, Italy). Ileal segments were equilibrated for 60 min^[ [16] ^] followed by three repeated additions of submaximal concentration of 5‐HT (10^−5 M) in order to record stable control contractions. […] The contact time for each concentration was 10 min. The compounds were dissolved in DMSO. […] Results are expressed as mean (SEM). […] The IC50 and Emax values were calculated with the aid of a computer program (GraphPad Prism 5).

Chain of 5‐HT2A receptor (P14842 whole entry): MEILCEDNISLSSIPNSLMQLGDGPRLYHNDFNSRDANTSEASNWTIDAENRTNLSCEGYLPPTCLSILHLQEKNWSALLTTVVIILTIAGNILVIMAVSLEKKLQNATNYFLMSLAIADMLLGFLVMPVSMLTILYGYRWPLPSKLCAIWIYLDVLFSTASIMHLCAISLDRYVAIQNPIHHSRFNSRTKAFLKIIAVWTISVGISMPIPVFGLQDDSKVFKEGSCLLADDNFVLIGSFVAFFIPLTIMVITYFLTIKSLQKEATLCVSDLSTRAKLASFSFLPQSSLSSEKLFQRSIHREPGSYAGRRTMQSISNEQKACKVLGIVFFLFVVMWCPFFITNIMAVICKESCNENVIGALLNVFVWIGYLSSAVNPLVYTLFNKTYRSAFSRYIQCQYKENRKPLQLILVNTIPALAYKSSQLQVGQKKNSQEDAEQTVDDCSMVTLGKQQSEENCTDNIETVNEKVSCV

For `O=C(NCCCN1CCN(c2ccccc2C2=NCCS2)CC1)c1ccccn1` [FG‐1, N‐(3‐(4‐(2‐(4,5‐dihydrothiazol‐2‐yl) phenyl) piperazin‐1‐yl) propyl) picolinamide], the “larval behavior under the dark conditions (light–dark transition)” value (larval zebrafish) was “influenced larval behavior under the dark conditions”.
`O=C(NCCCN1CCN(c2cccc(C3=NCCS3)c2)CC1)c1ccccn1` [FG‐2, N‐(3‐(4‐(3‐(4,5‐dihydrothiazol‐2‐yl) phenyl) piperazin‐1‐yl) propyl) picolinamide] gave an Emax (5‐HT2A receptor) of 25.4% and a pIC50 (5‐HT2A receptor) of 5.21.
`O=C1C2C3C=CC(C3)C2C(=O)N1OCCCN1CCN(c2ccccc2C2=NCCS2)CC1` (stereo not shown) [FG‐7, 2‐(3‐(4‐(2‐(4,5‐dihydrothiazol‐2‐yl) phenyl) piperazin‐1‐yl) propoxy)‐3a,4,7,7a‐tetrahydro‐1 H‐4,7‐methanoisoindole‐1,3(2 H)‐dione] showed an Emax (5‐HT2A receptor) of 24.5% and a pIC50 (5‐HT2A receptor) of 5.75.
Work on `O=C1C2C3C=CC(C3)C2C(=O)N1OCCCN1CCN(c2cccc(C3=NCCS3)c2)CC1` (stereo not shown) [FG‐8, 2‐(3‐(4‐(3‐(4,5‐dihydrothiazol‐2‐yl) phenyl) piperazin‐1‐yl) propoxy)‐3a,4,7,7a‐tetrahydro‐1H‐4,7‐methanoisoindole‐1,3(2H)‐dione] yielded an Emax (5‐HT2A receptor) of 21.4% and a pIC50 (5‐HT2A receptor) of 6.81.
For `O=C(NCCCN1CCN(c2ccc(C3=NCCS3)cc2)CC1)C1CC2C=CC1C2` (stereo not drawn) [FG‐18, Endo‐ N‐(3‐(4‐(4‐(4,5‐dihydrothiazol‐2‐yl)phenyl)piperazin‐1‐yl)propyl) bicyclo[2.2.1]hept‐5‐ene‐2‐carboxamide], the “larval behavior under the dark conditions (light–dark transition)” value (larval zebrafish) was “influenced larval behavior under the dark conditions”, the Emax (5‐HT2A receptor) was 32.8% and the pIC50 (5‐HT2A receptor) was 5.53.

From paper PMC12321279, “Novel 4,5‐Dihydrothiazole‐Phenylpiperazine Derivatives: Synthesis, Docking Studies and Pharmacological Evaluation as Serotonergic Agents” (Chemmedchem, 2025)
